From US7754736B2, “5-aminoindole derivatives as H3 inverse agonists” (Hoffmann-La Roche Inc., priority 2005, dated 2010)
Where a name gives a salt, the structure may show the parent alone.

What follows are compounds tested against T1, histamine 3 receptor (H3R) (Homo sapiens, UniProt Q9Y5N1) (assay: Competition binding assay with 3H-(R)α-methylhistamine on membranes of the human HR3-CHO cell line). Settings: competition with 3H(R)α-Methylhistamine (1 nM), Ki calculated from IC50 by Cheng-Prusoff equation.
T1 construct: expressed in transfected cells; host or cells: CHO cells
Protocol: Binding Assay with ^3H-(R)α-methylhistamine Saturation binding experiments were performed using HR3-CHO membranes prepared as described in […]. Pharmacol. Exp. Therapeutics 307, 213-218. An appropriate amount of membrane (60 to 80 μg protein/well) was incubated with increasing concentrations of ^3H(R)α-Methylhistamine di-hydrochloride (0.10 to 10 nM). Non specific binding was determined using a 200 fold excess of cold (R)α-Methylhistamine dihydrobromide (500 nM final concentration). The incubation was carried out at room temperature (in deep-well plates shaking for three hours). The final volume in each well was 250 μl. The incubation was followed by rapid filtration on GF/B filters (pre-soaked with 100 μl of 0.5% PEI in Tris 50 mM shaking at 200 rpm for two hours). The filtration was made using a cell-harvester and the filter plates were then washed five times with ice cold washing buffer containing 0.5 M NaCl. After harvesting, the plates were dried at 55° C. for 60 min, then we added scintillation fluid (Microscint 40, 40 microl in each well) and the amount of radioactivity on the filter was determined in Packard top-counter after shaking the plates for two hours at 200 rpm at room temperature. Binding Buffer: 50 mM Tris-HCl pH 7.4 and 5 mM MgCl2×6H2O pH 7.4. Washing Buffer: 50 mM Tris-HCl pH 7.4 and 5 mM MgCl2×6H2O and 0.5 M NaCl pH 7.4. […] An appropriate amount of protein, e.g. approximately 500 cpm binding of RAMH at Kd, were incubated for 1 hour at room temperature in 250 μl final volume in 96-well plates in presence of ^3H(R)α-Methylhistamine (1 nM final concentration=Kd). Non-specific binding was determined using a 200 fold excess of cold (R)α-Methylhistamine dihydrobromide. All compounds were tested at a single concentration in duplicates. […] Ki's were calculated from IC50 based on Cheng-Prusoff equation (Cheng, Y, Prusoff, W H (1973) Biochem Pharmacol 22, 3099-3108).

T1 sequence (Q9Y5N1 whole entry): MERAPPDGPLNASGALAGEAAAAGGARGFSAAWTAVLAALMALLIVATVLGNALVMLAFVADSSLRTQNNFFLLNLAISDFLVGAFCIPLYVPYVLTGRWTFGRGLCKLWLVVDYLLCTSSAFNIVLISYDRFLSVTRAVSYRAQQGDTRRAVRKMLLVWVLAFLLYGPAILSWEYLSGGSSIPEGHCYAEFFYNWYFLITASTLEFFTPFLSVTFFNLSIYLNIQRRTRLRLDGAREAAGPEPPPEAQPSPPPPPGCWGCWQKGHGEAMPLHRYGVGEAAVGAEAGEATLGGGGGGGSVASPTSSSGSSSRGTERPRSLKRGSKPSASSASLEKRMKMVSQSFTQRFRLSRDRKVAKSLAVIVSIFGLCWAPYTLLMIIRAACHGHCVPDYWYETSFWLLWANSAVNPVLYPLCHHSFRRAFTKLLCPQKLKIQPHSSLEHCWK

Which Ki does the source give for `CC(C)N1CCC(Nc2ccc3[nH]c(C(=O)N4CCOCC4)cc3c2)CC1` [Example 3, [5-(1-isopropyl-piperidin-4-ylamino)-1H-indol-2-yl]-morpholin-4-yl-methanone] here?
The Ki was 47.5 nM.

With `CC(C)N1CCC(Nc2ccc3[nH]c(C(=O)N4CCOCC4)cc3c2)C1` (stereo not drawn) [Example 11, [5-(1-isopropyl-pyrrolidin-3-ylamino)-1H-indol-2-yl]-morpholin-4-yl-methanone bis-hydrochloride] as the compound, how does the Ki read?
Its Ki is 256 nM.

`CC(C)N1CCC(Oc2ccc3[nH]c(C(=O)N(C)C(C)C)cc3c2)CC1` [Example 19, 5-(1-isopropyl-piperidin-4-yloxy)-1H-indole-2-carboxylic acid isopropyl-methyl-amide] was tested. Which Ki did it give?
The Ki was 66 nM.
